# What was measured:
# [1] = tested on: Trichophyton rubrum; experiment: Methylene blue phototherapy of infected nail pieces, ex vivo; format: cell-based; design: key to Fungal growth on nail pieces after treatment: “G” indicates growth; “N” indicates no growth
# Protocol: Sterilized nail pieces were placed on fresh T.rubrum lawn to be infected for at least 10 days with dorsal side upwards. […] Control was carrier solution with no Methylene blue. […] The nails were exposed to red light (640 nm, 9 W—3 LED lights, 3 W each) for 30 min. Amount of viable fungal colonies of Trichophyton rubrum after treatment relative to control was observed using microscope and once visual continued to be monitored with the naked eye. Results are shown in Table 2, where “G” indicates growth and “N” indicates no growth. […] After 5 days mycelium growth was found for the 0.0625% and 0.03125% treatments. After 6 days of the treatment mycelium was found for the 0.125% treatments. […] Meaning that there is a need for a secondary treatment or alternative treatment in order to obtain prolonged inhibition of re-growth.
# [2] = tested on: C. albicans; settings: low curcumin concentrations, planktonic and biofilm form; cited from earlier work
smiles,measurement,setting,value
"CN(C)c1ccc2nc3ccc(=[N+](C)C)cc-3sc2c1 [MB, Methylene blue]",Fungal growth on nail pieces after treatment,"[1]; 0.03% MB in carrier, red light 640 nm 30 min, Day 3",N
same,Fungal growth on nail pieces after treatment,"[1]; 0.03% MB in carrier, red light 640 nm 30 min, Day 4",N
same,Fungal growth on nail pieces after treatment,"[1]; 0.03% MB in carrier, red light 640 nm 30 min, Day 6",G
same,Fungal growth on nail pieces after treatment,"[1]; 0.03% MB in carrier, red light 640 nm 30 min, Day 7",G
same,Fungal growth on nail pieces after treatment,"[1]; 0.03% MB in carrier, red light 640 nm 30 min, Day 8",G
same,Fungal growth on nail pieces after treatment,"[1]; 0.03% MB in carrier, red light 640 nm 30 min, Day 9",G
same,Fungal growth on nail pieces after treatment,"[1]; 0.03% MB in carrier, red light 640 nm 30 min, Day 10",G
same,Fungal growth on nail pieces after treatment,"[1]; 0.03% MB in carrier, red light 640 nm 30 min, Day 12",G
same,Fungal growth on nail pieces after treatment,"[1]; 0.03% MB in carrier, red light 640 nm 30 min, Day 13",G
same,Days after treatment at which mycelium growth was found,"[1]; 0.03125% MB, red light 640 nm 30 min",5 days
same,Fungal growth on nail pieces after treatment,"[1]; 0.0625% MB in carrier, red light 640 nm 30 min, Day 3",N
same,Fungal growth on nail pieces after treatment,"[1]; 0.0625% MB in carrier, red light 640 nm 30 min, Day 4",N
same,Fungal growth on nail pieces after treatment,"[1]; 0.0625% MB in carrier, red light 640 nm 30 min, Day 6",G
same,Fungal growth on nail pieces after treatment,"[1]; 0.0625% MB in carrier, red light 640 nm 30 min, Day 7",G
same,Fungal growth on nail pieces after treatment,"[1]; 0.0625% MB in carrier, red light 640 nm 30 min, Day 8",G
same,Fungal growth on nail pieces after treatment,"[1]; 0.0625% MB in carrier, red light 640 nm 30 min, Day 9",G
same,Fungal growth on nail pieces after treatment,"[1]; 0.0625% MB in carrier, red light 640 nm 30 min, Day 10",G
same,Fungal growth on nail pieces after treatment,"[1]; 0.0625% MB in carrier, red light 640 nm 30 min, Day 12",G
same,Fungal growth on nail pieces after treatment,"[1]; 0.0625% MB in carrier, red light 640 nm 30 min, Day 13",G
same,Days after treatment at which mycelium growth was found,"[1]; 0.0625% MB, red light 640 nm 30 min",5 days
same,Fungal growth on nail pieces after treatment,"[1]; 0.125% MB in carrier, red light 640 nm 30 min, Day 3",N
same,Fungal growth on nail pieces after treatment,"[1]; 0.125% MB in carrier, red light 640 nm 30 min, Day 4",N
same,Fungal growth on nail pieces after treatment,"[1]; 0.125% MB in carrier, red light 640 nm 30 min, Day 6",N
same,Fungal growth on nail pieces after treatment,"[1]; 0.125% MB in carrier, red light 640 nm 30 min, Day 7",G
same,Fungal growth on nail pieces after treatment,"[1]; 0.125% MB in carrier, red light 640 nm 30 min, Day 8",G
same,Fungal growth on nail pieces after treatment,"[1]; 0.125% MB in carrier, red light 640 nm 30 min, Day 9",G
same,Fungal growth on nail pieces after treatment,"[1]; 0.125% MB in carrier, red light 640 nm 30 min, Day 10",G
same,Fungal growth on nail pieces after treatment,"[1]; 0.125% MB in carrier, red light 640 nm 30 min, Day 12",G
same,Fungal growth on nail pieces after treatment,"[1]; 0.125% MB in carrier, red light 640 nm 30 min, Day 13",G
same,Days after treatment at which mycelium growth was found,"[1]; 0.125% MB, red light 640 nm 30 min",6 days
same,Fungal growth on nail pieces after treatment,"[1]; 0.25% MB in carrier, red light 640 nm 30 min, Day 3",N
same,Fungal growth on nail pieces after treatment,"[1]; 0.25% MB in carrier, red light 640 nm 30 min, Day 4",N
same,Fungal growth on nail pieces after treatment,"[1]; 0.25% MB in carrier, red light 640 nm 30 min, Day 6",N
same,Fungal growth on nail pieces after treatment,"[1]; 0.25% MB in carrier, red light 640 nm 30 min, Day 7",N
same,Fungal growth on nail pieces after treatment,"[1]; 0.25% MB in carrier, red light 640 nm 30 min, Day 8",N
same,Fungal growth on nail pieces after treatment,"[1]; 0.25% MB in carrier, red light 640 nm 30 min, Day 9",N
same,Fungal growth on nail pieces after treatment,"[1]; 0.25% MB in carrier, red light 640 nm 30 min, Day 10",N
same,Fungal growth on nail pieces after treatment,"[1]; 0.25% MB in carrier, red light 640 nm 30 min, Day 12",N
same,Fungal growth on nail pieces after treatment,"[1]; 0.25% MB in carrier, red light 640 nm 30 min, Day 13",G
same,Days after treatment at which growth was found,"[1]; 0.25% MB, red light 640 nm 30 min",12 days
same,Effect on fungus growth,"[1]; MB alone (without light), separate experiment",did not kill nor inhibit
"COc1cc(/C=C/C(=O)CC(=O)/C=C/c2ccc(O)c(OC)c2)ccc1O [curcumin, diferuloylmethane]",photoinactivating C. albicans,[2],highly effective
